Test results from patent publication US7034013B2 (priority 2001, dated 2006).
In brackets after ≈: the same amount, converted by molar mass. Read-outs that look alike come from different tables or passages of the source.

Tests used:
[1] = for concentration of uncomplexed propofol in solution / concentration of uncomplexed propofol in solution, % of the total: binding constant 3800 M^−1
physchem = conditions: water, solubility in water
[2] = in the absence of a solubilizing agent; cited from earlier work
[3] = intravenous injection of a therapeutic dose; cited from earlier work
hemolysis = conditions: in concentrations typically used to solubilize pharmaceutical formulations; FIG. 1 (Thompson 1997); cited from earlier work
[4] = CAPTISOL cyclodextrin 14.4% w/v (0.0665M)
[5] = CAPTISOL cyclodextrin 50% w/v (0.231M)

Compound	solubility in water [µg/mL]	concentration of uncomplexed propofol in solution [1, 4] [M]	concentration of uncomplexed propofol in solution, % of the total [1, 4]	concentration of uncomplexed propofol in solution [1, 5] [M]	concentration of uncomplexed propofol in solution, % of the total [1, 5]	solubility (physchem) [µg/mL]	water solubility [2]	time to induction of anesthesia from the start of injection [3] [s]	CAPTISOL® cyclodextrin concentration required to raise aqueous propofol from 0.15 mg/mL to 10 mg/mL ([1]; propofol 10 mg/mL) [% w/v]	hemolytic behavior (hemolysis)
CC(C)c1cccc(C(C)C)c1O [propofol, 2,6-diisopropylphenol]	150 (≈ 841 µM)	~0.00124	about 2.21%	~0.000084	about 0.15%	~150 (≈ 841 µM)	approximately 0.154 mg/mL	≤ 40		
Sulfobutyl Ether-β-Cyclodextrin [CAPTISOL® cyclodextrin]									15	essentially no hemolytic behavior
